Earlier results in patent publication US20040167132A1, “Methods of treating conditions associted with an Edg-2 receptor” (priority 2003, published 2004).
Counter-ions that a name gives are not always drawn. Each block holds one compound with its values, some of them ahead of it.

Experiments:
Adrenergic β = settings: radioligand; Wistar rat brain; historical value
Angiotensin AT2 = target: T1, Angiotensin AT2 (Homo sapiens, UniProt P50052); settings: radioligand; Human recombinant Hela cells; historical value
T1 construct: expressed in transfected cells; host or cells: HeLa cells
T1 sequence (P50052 1-363): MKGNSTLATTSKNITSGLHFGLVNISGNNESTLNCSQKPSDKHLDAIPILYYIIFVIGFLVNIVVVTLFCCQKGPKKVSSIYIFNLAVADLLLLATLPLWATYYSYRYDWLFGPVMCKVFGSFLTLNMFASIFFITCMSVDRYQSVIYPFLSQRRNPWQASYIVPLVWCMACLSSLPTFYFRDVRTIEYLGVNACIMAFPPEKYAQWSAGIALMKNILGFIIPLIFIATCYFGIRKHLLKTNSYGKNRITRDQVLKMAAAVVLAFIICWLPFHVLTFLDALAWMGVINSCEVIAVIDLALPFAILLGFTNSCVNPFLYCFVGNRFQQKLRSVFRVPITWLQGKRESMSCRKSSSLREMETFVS

[1] = target: Serotonin 5-HT1, non-selective; settings: radioligand; Wistar rat cerebral cortex; historical value
[2] = target: Adrenergic α1 non-selective

- Kd (Adrenergic β): 500 pM
Compound: CCCc1ccccc1OCC(O)CNC(C)C (stereo not shown) [^3H Dihydroaplenolol, Dihydroaplenolol]

- Kd (Angiotensin AT2): 12 pM
Compound: CGP-42112A [^125I CGP-42112A]

Compound: NCCc1c[nH]c2ccc(O)cc12 [^3H Serotonin (5-HT) Trifluoroacetate, Serotonin (5-HT) Trifluoroacetate]
- Kd [1]: 610 pM

Compound: COc1cc2nc(N3CCN(C(=O)c4ccco4)CC3)nc(N)c2cc1OC [^3H Prazosin, Prazosin]
- Kd [2]: 290 pM
